Measured values: patent publication US20100048516A1, “PENETRATION ENHANCER FOR FUNGICIDES” (Bayer CropScience AG, priority 2006, published 2010)
Entries after “also recorded” stand apart in the source; their conditions may differ.

Key:
crop plant = assay: Crop plant tolerance tests of TBEP versus other alkyl ester additives; assay type: in vivo; details: compared with other alkyl ester additives
[1] = Penetration test: penetration of radioactively marked active substance through isolated apple leaf cuticles in diffusion cells; details: for % Penetration (after hours): acetone/tap water 20/80% by weight, 20-25° C., rel. humidity 56-60%, mean of 4-8 repetitions
Protocol: In this test, the penetration of active substances through enzymatically isolated cuticles of apple tree leaves was measured. The cuticles represent all green plant parts, such as leaf blade, petiole, stalk, trunk, hypocotyl and many fruits.
Leaves which were cut off in the stage of full development of apple trees of the Golden Delicious variety were used. The isolation of the cuticles was effected in a manner such that • first, leaf disks marked on the underside with dye and punched out were filled by means of vacuum infiltration with a pectinase solution (0.2 to 2% strength by weight) buffered to a pH between 3 and 4, • sodium azide was then added and • the leaf disks thus treated were allowed to stand until disintegration of the original leaf structure and detachment of the noncellular cuticle.
Thereafter, only those cuticles of the upper sides of the leaves which were free of stomata and hairs were further used. They were washed several times alternately with water and a buffer solution at pH 7. The cleaned cuticles obtained were finally drawn onto small Teflon plates and smoothed and dried with a gentle air jet.
In the next step, the cuticle membranes thus obtained were placed in stainless steel diffusion cells (=transport chambers) for membrane transport investigations. For this purpose, the cuticles were placed by means of forceps centrally on the silicone grease-coated edges of the diffusion cells and closed with a likewise greased ring. The arrangement was chosen so that the morphological outside of the cuticles faced outward, i.e. toward the air, while the original inside faced the interior of the diffusion cell. The diffusion cells were filled with water or with a mixture of water and solvent.
For determining the penetration, in each case 10 μl of a spray liquor of the composition mentioned in the examples were applied to the outside of a cuticle.
In each case the solvents listed below in the table (tap water or a mixture with 20% by weight of acetone/80% by weight of tap water) were used in the spray liquors.
After the application of the spray liquors, in each case the solvent was allowed to evaporate, and in each case the chambers were then turned around and placed in thermostated trays, air having a defined temperature and atmospheric humidity being blown onto the outside of the cuticle. The incipient penetration therefore took place at a relative humidity of 60% and a set temperature of 20 or 25° C. The active substance penetration was measured with radioactively marked active substance.

[2] = after 3 hours, 0.2 g/l active substance without or with 0.5 g/l TBEP, apple leaf cuticles
[3] = after 24 hours, 0.2 g/l active substance without or with 0.5 g/l TBEP, apple leaf cuticles

Compound | % Penetration (after hours) [1, 2] | % Penetration (after hours) [1, 3] [%] | other results
CCCCOCCOP(=O)(OCCOCCCC)OCCOCCCC [TBEP, tributoxyethyl phosphate] | – | – | Crop plant tolerance (in words) (crop plant): more tolerant than other alkyl ester additives; Effect of the penetration enhancer on uptake of active substances (in words) ([1]; summary of tables 1 and 2, apple leaf cuticles): considerable increase in uptake of the active substances; also recorded: advantageously higher increase in uptake of active substances than the penetration enhancers of the prior art
COc1ccccc1C(=O)NS(=O)(=O)c1ccc(C(=O)NC2CC2)cc1 [cyprosulfamide, 4-cyclopropylaminocarbonyl-N-(2-methoxybenzoyl)benzenesulfonamide] | 0.1 (3) % | 0.3 | –
CCOC(=O)C(C)Oc1ccc(Oc2nc3ccc(Cl)cc3o2)cc1 (stereo not drawn) [fenoxaprop-P-ethyl, ethyl 2-(4-(6-chlorobenzoxazol-2-yloxy)phenoxy)propionate] | – | – | % Penetration (after 24 hours) ([1]; apple tree, 24 h, 0.3 g/l): 0.3%; % Penetration (after 48 hours) ([1]; apple tree, 48 h, 0.3 g/l): 0.9%
CCOC(=O)C1=NOC(c2ccccc2)(c2ccccc2)C1 [isoxadifen-ethyl, ethyl 5,5-diphenyl-2-isoxazolinecarboxylate] | 1.7 (3) % | 17.4 | –
CCOC(=O)C1=NN(c2ccc(Cl)cc2Cl)C(C)(C(=O)OCC)C1 (stereo not drawn) [mefenpyr-diethyl, ethyl 1-(2,4-dichlorophenyl)-5-(ethoxycarbonyl)-5-methyl-2-pyrazoline-3-carboxylate] | 0.4 (3) % | 4.9 | –
O=C(Nc1ccccc1)Nc1cnns1 [thidiazuron] | – | – | % Penetration (after hours) ([1]; after 6 hours, 0.2 g/l thidiazuron without or with 3 g/l TBEP, apple leaf cuticles): 0.6 (6) %; % Penetration (after hours) ([1]; after 24 hours, 0.2 g/l thidiazuron without or with 3 g/l TBEP, apple leaf cuticles): 0.9%
